Where a name gives a salt, the structure may show the parent alone.
Key:
[1] = system: human adult dermal fibroblasts HDFa; assay: HS and Lamp1 immunofluorescence in control fibroblasts HDFa; assay type: cell-based; details: 20 μM, 48 hours
Description: (§1) To verify whether the selected iminosugars could exert the same effects also on the fibroblasts of patients affected by Sanfilippo disease, human adult dermal fibroblasts HDFa (purchased from Sigma-Aldrich) were used as control, and fibroblasts of patients affected by Sanfilippo A and B (MPS IIIA and IIIB) were used as disease model.
(§2) Cells were cultured in the presence of the selected L-iminosugars at a dosage of 20 μM and after 48 hours were treated for HS and Lamp1 immunofluorescence. Treatment with L-iminosugars had no effect on control HDFa (Table 3).
(§3) Cells were grown in the presence of the iminosugars D-DNJ, D-NBDNJ, D-AMPDNM and D-MONDNJ at the dosage of 20 μM and after 48 hours were treated for HS and Lamp1 immunofluorescence. Treatment with D-iminosugars had no effect on HDFa and fibroblasts of patients affected by Sanfilippo A and B (MPS IIIA and MPS IIIB) both on HS and lysosome accumulation (Table 4).

[2] = system: fibroblasts of patients affected by Sanfilippo A (MPS IIIA); assay: HS and Lamp1 immunofluorescence in Sanfilippo A patient fibroblasts; assay type: cell-based, human; details: 20 μM, 48 hours; for Cells positive for HS (%) / Cells positive for Lamp1 (%) / Relative fluorescence intensity compared to HDFa, HS / Relative fluorescence intensity compared to HDFa, Lamp1: MPS-IIIA fibroblasts; for Effect on HS and lysosome (Lamp1) accumulation, in words: Sanfilippo A (MPS IIIA) patient fibroblasts
Excerpt: as §1
(§4) The human cell lines, fibroblasts, from patients with MPS (Sanfilippo disease) used in the examples were obtained from the G. Gaslini Institute of Genoa, “Cell Line and DNA Biobank from Patients Affected by Genetic Diseases”-Telethon Genetic Biobank Network—Telethon research service. These cells are classified with identification codes and by type of disease without allowing patient identification. Cells were collected from the patients, at the Gaslini Institute, with informed consent to the collection extended to conservation and its possible use, for diagnosis and/or research purposes according to current legislation as required by the guidelines followed by the Telethon biobanks. The Network operates abiding by the Italian Privacy and Data Protection Laws in force, including: Italian Data Protection Authority, Personal Data Protection Code, Legislative Decree no. 196, 30 Jun. 2003, published in Official Gazette No. 174 of the Italian Republic, 29 Jul. 2003; Italian Data Protection Authority, General Authorization for the processing of genetic data, 24 Jun. 2011, published in Official Gazette No. 159 of Italian Republic, 11 Jul. 2011.
as §2, §3

[3] = system: fibroblasts of patients affected by Sanfilippo B (MPS IIIB); assay: HS and Lamp1 immunofluorescence in Sanfilippo B patient fibroblasts; assay type: cell-based, human; details: 20 μM, 48 hours; for Cells positive for HS (%) / Cells positive for Lamp1 (%) / Relative fluorescence intensity compared to HDFa, HS / Relative fluorescence intensity compared to HDFa, Lamp1: MPS-IIIB fibroblasts; for Effect on HS and lysosome (Lamp1) accumulation, in words: Sanfilippo B (MPS IIIB) patient fibroblasts
Excerpt: as §1, §4, §2, §3

[4] = system: HeLa tumor epithelial cells; assay: HeLa cell proliferation assay; assay type: cell-based; details: after 48 hours
Description: Furthermore, treatment with the L-deoxyminosugars L-DNJ, L-NBDNJ, L-AMPDNM and L-MONDNJ caused a decrease of the number of HeLa cells after 48 hours as shown by the cell proliferation assay reported in Table 6.

[5] = system: NAGLU-silenced clone (cl5) of human neuroblastoma cell line SK-NBE; assay: Immunofluorescence against beta-amyloid peptide 1-42 in NAGLU-silenced SK-NBE clone; assay type: cell-based; details: 20 μM, 48 hours
Description: The clone (c15) stably silenced for NAGLU, the causative gene of MPS IIIB, is able to mimic the features of neurodegenerative diseases as it accumulates beta-amyloid fibers in the cytoplasm. In fact, Sanfilippo Syndrome is also defined as “childhood Alzheimer”.
The diseased clone (c15) was grown in the presence of L-DNJ, L-NBDNJ, L-AMPDNM and L-MONDNJ and the corresponding enantiomers D-DNJ, D-NBDNJ, D-AMPDNM and D-MONDNJ at a dosage of 20 μM and after 48 hours were processed by immunofluorescence against the beta-amyloid peptide 1-42. […] On contrary, treatment with the corresponding D-enantiomers has no effect on the reduction of the accumulation of amyloid fibers compared to the untreated clone (mock) (Table 7).

[6] = system: NAGLU-silenced clone (cl5) of human neuroblastoma cell line SK-NBE; assay: Lamp1 immunofluorescence (lysosomal accumulation) in NAGLU-silenced SK-NBE clone, Sanfilippo B model; assay type: cell-based; details: 48 hours; for Cells positive for Lamp1 (%) / Relative Lamp1 fluorescence intensity: cl5 clone, 20 μM; for Effect on lysosomal enlargement and accumulation (lysosomal phenotype), in words: clone 5, 20 μM
Excerpt: (§5) To study the effects of the compounds on the lysosomal dysfunctions in a neuronal model of Sanfilippo B disease (MPS IIIB), we recently generated stable clones of the human neuroblastoma cell line SK-NBE silenced for the NAGLU gene causative of MPS IIIB [De Pasquale V, et al. (2021). Biochim Biophys Acta Mol Cell Res. 1868, 119113.]. Mimicking the features of Sanfilippo B disease, silencing of NAGLU causes accumulation of heparan sulfate and accumulation of lysosomes in the cytoplasm of stable SK-NBE clones compared to the control (WT) clone.
(§6) Therefore, NAGLU-silenced clone (c15) and control clone (WT) were selected to test the effect of L-deoxyminosugars (L-DNJ, L-NBDNJ, L-NNDNJ, L-HPDNJ, L-NPDNJ, L-AMPDNM and L-MONDNJ) in the hydrochloride form on the lysosomal phenotype of our cell model of Sanfilippo B (MPS IIIB).
(§7) Clone 5 was cultured in the presence of 20 μM of each L-deoxyminosugar under normal growth conditions and after 48 hours the lysosomal accumulation was evaluated with immunofluorescence technique by using a specific antibody against Lamp1 (lysosomal marker). […] Furthermore, upon treatment with the active L-deoxyminosugar the lysosomes are no longer concentrated in the perinuclear region of the cells, as occurs in several lysosomal diseases, but they are physiologically distributed throughout the cytoplasm.

[7] = system: control clone (WT) of human neuroblastoma cell line SK-NBE; assay: Lamp1 immunofluorescence in control (WT) SK-NBE clone; assay type: cell-based; details: 20 μM, 48 hours
Excerpt: as §5, §6, §7

[8] = system: NAGLU-silenced clone (cl5) of human neuroblastoma cell line SK-NBE; assay: Heparan sulfate (HS) immunofluorescence in NAGLU-silenced SK-NBE clone, Sanfilippo B model; assay type: cell-based; details: 48 hours; for Cells positive for HS (%) / Relative HS fluorescence intensity: cl5 clone, 20 μM; for Effect on HS staining / HS accumulation, in words: clone 5, 20 μM
Excerpt: as §5
Clone 5 was grown in the presence of 20 μM of each L-iminosugar under normal growth conditions and after 48 hours the accumulation of heparan sulfate (HS) was evaluated by immunofluorescence staining for HS.

[9] = system: control clone (WT) of human neuroblastoma cell line SK-NBE; assay: Heparan sulfate (HS) immunofluorescence in control (WT) SK-NBE clone; assay type: cell-based; details: 20 μM, 48 hours
[10] = system: HeLa tumor epithelial cells; assay: HS immunostaining in HeLa cells; assay type: cell-based; details: 48 hours
Description: To test whether treatment with the selected L-deoxyminosugars (L-DNJ, L-NBDNJ, L-AMPDNM and L-MONDNJ) could interfere with HS synthesis we selected a cell line not mutated for NAGLU and highly decorated by heparan sulfate on the cell membrane. For this purpose, HeLa tumor epithelial cells (purchased from ATCC) were cultured for 48 hours in the presence of the selected L-iminosugars and the amount of HS was evaluated by immunostaining.

Row | SMILES | Cell number [4] | Relative amyloid fluorescence intensity [5] | Cells positive for Lamp1 (%) [6] [%] | Relative Lamp1 fluorescence intensity [6] | Effect on lysosomal enlargement and accumulation (lysosomal phenotype), in words [6] | Cells positive for Lamp1 (%) [7] [%] | Relative Lamp1 fluorescence intensity [7] | Cells positive for HS (%) [8] [%] | Relative HS fluorescence intensity [8] | Effect on HS staining / HS accumulation, in words [8] | Cells positive for HS (%) [9] [%] | Relative HS fluorescence intensity [9] | Relative fluorescence intensity compared to HDFa, HS [1] | Relative fluorescence intensity compared to HDFa, Lamp1 [1] | Relative fluorescence intensity compared to HDFa, HS [2] | Relative fluorescence intensity compared to HDFa, Lamp1 [2] | Effect on HS and lysosome (Lamp1) accumulation, in words [2] | Relative fluorescence intensity compared to HDFa, HS [3] | Relative fluorescence intensity compared to HDFa, Lamp1 [3] | Effect on HS and lysosome (Lamp1) accumulation, in words [3] | also measured
1 | OC[C@@H]1[C@@H](O)[C@H](O)[C@@H](O)CN1CCCCCOCC12CC3CC(CC(C3)C1)C2 [D-AMPDNM•HCl] | 5.1 · 10^5 | 1.02 |  |  |  |  |  |  |  |  |  |  |  |  |  |  |  |  |  |  | Cells positive for HS (%) [1]: 4.9%; Cells positive for Lamp1 (%) [1]: 5.1%; Cells positive for HS (%) [2]: 98.7%; Cells positive for Lamp1 (%) [2]: 96.8%; Cells positive for HS (%) [3]: 96.4%; Cells positive for Lamp1 (%) [3]: 94.6%
2 | OC[C@H]1NC[C@H](O)[C@@H](O)[C@@H]1O [D-DNJ•HCl, deoxynojirimycin] | 4.4 · 10^5 | 0.99 |  |  |  |  |  |  |  |  |  |  |  |  |  |  |  |  |  |  | Cells positive for HS (%) [1]: 2.4%; Cells positive for Lamp1 (%) [1]: 5.0%; Cells positive for HS (%) [2]: 97.3%; Cells positive for Lamp1 (%) [2]: 95.0%; Cells positive for HS (%) [3]: 94.9%; Cells positive for Lamp1 (%) [3]: 92.5%
3 | COCCCCCCCCCN1C[C@H](O)[C@@H](O)[C@H](O)[C@H]1CO.Cl [D-MONDNJ•HCl] | 5.0 · 10^5 | 1.05 |  |  |  |  |  |  |  |  |  |  |  |  |  |  |  |  |  |  | Cells positive for HS (%) [1]: 5.0%; Cells positive for Lamp1 (%) [1]: 5.3%; Cells positive for HS (%) [2]: 99.2%; Cells positive for Lamp1 (%) [2]: 95.2%; Cells positive for HS (%) [3]: 95.8%; Cells positive for Lamp1 (%) [3]: 93.8%
4 | OC[C@H]1[C@H](O)[C@@H](O)[C@H](O)CN1CCCCCOCC12CC3C[C@H](C1)C[C@H](C3)C2 [L-AMPDNM•HCl, N-adamantanomethoxypentyl L-DNJ] | 3.7 · 10^5 | 0.02 | 18 | 0.99 | dramatic reduction | 2.5 | 1.08 | 5.1 | 1.19 | dramatic reduction | 2.3 | 0.94 | 1.0 | 1.0 | 1.5 | 2.2 | strong reduction | 1.0 | 1.0 | strong reduction | Effect on HS accumulation on the HeLa cell membrane, in words [10]: strong reduction; Relative HS fluorescence intensity [10]: 0.12; Effect on the number of HeLa cells, in words [4]: decrease
5 | CCCCCCOCCCCCN1C[C@@H](O)[C@H](O)[C@@H](O)[C@@H]1CO [L-HPDNJ•HCl] | 4.3 · 10^5 |  | 87 | 2.10 | did not show any activity | 4.8 | 1.00 | 95.1 | 3.60 | did not show any activity | 2.4 | 0.95 | 1.0 | 1.0 | 5.4 | 3.1 | did not show any activity | 5.7 | 3.0 | did not show any activity | Effect on HS accumulation on the HeLa cell membrane, in words [10]: did not show any activity; Relative HS fluorescence intensity [10]: 0.95
6 | CCCCCCCCCN1C[C@@H](O)[C@H](O)[C@@H](O)[C@@H]1CO [L-NNDNJ•HCl] | 4.2 · 10^5 |  | 85 | 2.70 | did not show any activity | 4.1 | 1.04 | 97.5 | 3.71 | did not show any activity | 4.1 | 0.94 | 1.0 | 1.0 | 4.9 | 3.0 | did not show any activity | 5.8 | 3.1 | did not show any activity | Effect on HS accumulation on the HeLa cell membrane, in words [10]: did not show any activity; Relative HS fluorescence intensity [10]: 0.88
7 | CCCCCCCCCOCCCCCN1C[C@@H](O)[C@H](O)[C@@H](O)[C@@H]1CO [L-NPDNJ•HCl] | 4.7 · 10^5 |  | 84 | 2.65 | did not show any activity | 3.7 | 1.10 | 97.5 | 3.65 | did not show any activity | 4.4 | 0.93 | 1.0 | 1.0 | 5.2 | 2.8 | did not show any activity | 5.9 | 3.3 | did not show any activity | Effect on HS accumulation on the HeLa cell membrane, in words [10]: did not show any activity; Relative HS fluorescence intensity [10]: 1.19

Source: patent US20250255856A1, “THERAPEUTIC COMPOSITIONS WITH IMINO SUGARS FOR THE TREATMENT OF DISEASES WITH ACCUMULATION OF HEPARAN SULFATE” (priority 2022, published 2025)
